We go through one molecule from patent US20210244686A1, “Novel Systems And Methods For The Therapeutic Use of Cannabinoids or Cannabinoid Analogs to Increase The Lipid Order of Cholesterol Containing Cell Membranes” (The Regents of the University of Colorado a body corporate, priority 2018, published 2021).

The nature of assay [1]: FRAP of NBD-cholesterol in synthetic membrane monolayers. The note with it: PC SUV derived monolayers, 20% cholesterol, 2% NBD-cholesterol. From the text: CBD's ability to affect cholesterol orientation in both synthetic and cell derived ER membranes implies that CBD may contribute to increased lipid order. The ability of cholesterol oxidase assays to reveal alterations in lipid order has been previously reported in studies noting that cholesterol oxidase can preferentially target caveolar domains, which are ordered lipid domains. Another hallmark of lipid order is a decrease in lateral diffusion of lipids. As a result, the present inventors aimed to measure CBD's ability to perturb the lateral diffusion of fluorescently labelled cholesterol (NBD-cholesterol) in synthetic membranes. The present inventors deposited PC SUVs containing 20% moles of cholesterol and 2% moles NBD-cholesterol on glass-bottom multi-well imaging plates, followed by ultra-sonification to construct fluorescently labelled membrane monolayers. Using these monolayers and confocal microscopy, the inventor's performed fluorescence recovery after photobleaching (FRAP) experiments to measure the kinetics of recovery of fluorescent cholesterol. […] This effect of CBD on lateral diffusion could be rescued with simultaneous treatment with the lipid disordering agent DHA (FIGS. 6G, I). There are two proposed models for how DHA affects cholesterol in membranes. […]

A further assay deals with SK-N-BE(2) cells. Nature of the assay: RNAseq transcriptomics of CBD response. Type of assay: cell-based, human. The note with it: 20 μM CBD. As to the method: In order to compare and contrast proteomic derived mechanistic components of the CBD response to that of transcriptomic components, the present inventors additionally performed RNAseq analysis of SK-N-BE(2) cells exposed to vehicle or 20 μM CBD at the time-points indicated in FIG. 1C. 5,643 differentially expressed genes were identified in the CBD response gene with a FDR<1%, which was further reduced to a list of 139 genes with an LFC>=1. […] While most of these annotations are supported by either the transcriptome or the proteome, dysregulation of cholesterol metabolism is supported by both. […] As a result of the agreement between proteomic and transcriptomic data, we focused our study thereafter on determining the role of cholesterol homeostasis in the CBD drug response.
Sequencing was performed on seven consecutive lanes. Median read counts per lane were ˜49,000 with a CV of ˜7%. Starting with 228 fastq files, each lane set was concatenated per condition. Using Trimmomtic-0.36, base pairs were trimmed if they dropped below a PHRED score of 15 within a sliding window of 4 bp. Remaining reads shorter than 35 base pairs were removed. Illumina adapter sequences were also clipped using Trimmomatic. […] Read alignment was accomplished using Tophat-2.0.13 and Cufflinks/Cuffdiff 2.2.1 was used for FPKM quantitation and differential expression analysis per time point.

As to `C=C(C)[C@@H]1CCC(C)=C[C@H]1c1c(O)cc(CCCCC)cc1O` [CBD, cannabidiol], the “FRAP kinetics (lateral diffusion of fluorescent cholesterol)” value in assay [1] was “significantly reduced”. For the same molecule, the HMG-CR expression result in the assay on SK-N-BE(2) cells is “transcriptional activation”.
